Test results as given in paper doi:10.1101/2020.12.20.110478v1 (biorxiv, 2020).
pIC50: −log10 of the molar value.

Columns and labels:
human GlyT1 (hGlyT1) [1] = target: T1, human GlyT1 (hGlyT1) (Homo sapiens, UniProt P48067); assay: [3H]glycine uptake inhibition in Flp-in-CHO cells; type: cell-based
T1 sequence (P48067 1-706): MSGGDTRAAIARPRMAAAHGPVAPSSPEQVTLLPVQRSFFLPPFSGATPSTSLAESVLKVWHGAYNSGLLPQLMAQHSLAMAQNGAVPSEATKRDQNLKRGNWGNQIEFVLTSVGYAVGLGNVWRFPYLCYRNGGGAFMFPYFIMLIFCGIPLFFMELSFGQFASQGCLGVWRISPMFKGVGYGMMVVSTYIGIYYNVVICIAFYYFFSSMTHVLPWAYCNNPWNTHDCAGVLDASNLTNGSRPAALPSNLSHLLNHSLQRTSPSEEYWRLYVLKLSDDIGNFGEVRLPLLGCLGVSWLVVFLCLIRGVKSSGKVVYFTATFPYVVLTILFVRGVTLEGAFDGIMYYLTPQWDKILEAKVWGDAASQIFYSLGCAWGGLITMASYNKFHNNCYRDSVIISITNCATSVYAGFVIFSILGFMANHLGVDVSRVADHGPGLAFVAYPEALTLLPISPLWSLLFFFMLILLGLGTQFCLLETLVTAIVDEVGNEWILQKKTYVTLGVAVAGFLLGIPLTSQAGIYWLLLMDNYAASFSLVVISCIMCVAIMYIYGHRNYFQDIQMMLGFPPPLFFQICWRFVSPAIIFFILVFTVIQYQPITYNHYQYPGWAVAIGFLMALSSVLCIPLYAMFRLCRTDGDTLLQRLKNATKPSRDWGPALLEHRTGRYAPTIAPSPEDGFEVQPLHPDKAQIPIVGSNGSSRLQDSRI

GlyT1^minimal = target: T2, GlyT1^minimal (Homo sapiens, UniProt P48067); assay: CPM thermofluor; type: binding; conditions: 10 uM Cmpd1; 0.73 uM protein; pH 7.5; LMNG
T2 sequence (P48067 91-684): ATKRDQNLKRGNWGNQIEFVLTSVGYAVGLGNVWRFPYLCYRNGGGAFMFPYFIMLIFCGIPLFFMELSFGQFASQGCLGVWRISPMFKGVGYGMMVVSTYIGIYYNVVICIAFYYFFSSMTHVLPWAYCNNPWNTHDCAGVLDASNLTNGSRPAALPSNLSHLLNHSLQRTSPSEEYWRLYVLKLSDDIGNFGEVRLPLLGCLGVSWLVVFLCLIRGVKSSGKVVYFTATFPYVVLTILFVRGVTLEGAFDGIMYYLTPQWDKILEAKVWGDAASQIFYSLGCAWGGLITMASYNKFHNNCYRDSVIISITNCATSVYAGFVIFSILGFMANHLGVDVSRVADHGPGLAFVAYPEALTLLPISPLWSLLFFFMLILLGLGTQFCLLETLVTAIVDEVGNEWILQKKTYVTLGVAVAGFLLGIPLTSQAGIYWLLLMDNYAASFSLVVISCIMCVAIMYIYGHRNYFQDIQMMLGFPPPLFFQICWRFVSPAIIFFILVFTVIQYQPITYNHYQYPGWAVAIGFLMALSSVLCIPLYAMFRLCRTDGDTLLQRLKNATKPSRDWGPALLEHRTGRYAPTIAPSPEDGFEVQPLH

human GlyT1 (hGlyT1) [2] = target: T1, human GlyT1 (hGlyT1); assay: [3H]Org24598 membrane competition, filtration; type: binding

- pIC50 (human GlyT1 (hGlyT1) [1]): 7.58
- increase in melting point (GlyT1^minimal): 30.5 °C
- pIC50 (human GlyT1 (hGlyT1) [2]): 7.90
SMILES: CS(=O)(=O)c1ccc(OCC(F)(F)C(F)(F)F)c(C(=O)N2Cc3ccc(OC4CCOCC4)cc3C2)c1 [Cmpd1]
